# Reference: EP0659072B1, “PHAR[…] […] STEROIDS” (Pharmacia AB, priority 1993, dated 1995)
# Columns and labels:
# [1] = Solubility of steroid and stability of the oil-in-water emulsions of Example 2; assay type: physicochemical; conditions: in Formulation 1 compared with Formulation 3
# Method: For the biological experimentation oil-in-water emulsions were prepared from the following components:
# pH was adjusted to 8.5 by NaOH and water for injection was added to 1 ml in all formulations.
# Formulations 1 and 2 are emulsions according to the present invention, whereas Formulation 3 is a state of the art emulsion according to the European patent EP 233 849. The medium chain triglycerides in Formulation 2 are derived from coconut oil and will contain a fraction of triglycerides with fatty add residues having 6 to 12 carbon atoms. According to the present invention, the eltanolone was first mixed with castor oil or a mixture of castor oil and soybean oil and/or MCT. This leads to a substantial dissolution of the eltanolone. An emulsion was then prepared from the resulting oil-eltanolone mixture together with the additional indicated components. The resulting emulsions were stable and had average particle sizes of about 0.2 to 0.3 µ and could be sterilized by autoclaving without destabilisation. It is notable that in Formulations 1 and 2 according to the present invention half the amount of lipids is sufficient for obtaining a substantial dissolution of eltanolone when compared to Formulation 3. The solubility of eltanolone is for example about 5 times higher in Formulation 1 than in Formulation 3.
# [2] = Quality of castor oil containing emulsions with different steroids (pH, volume distribution, span, storage stability); assay type: physicochemical; conditions: for D(4:3) / pH / Span: emulsion of the steroid; for pH: heat sterilized; for Span: Malvern Mastersizer; for Storage 5 and 40°C: storage stability of emulsion
# Method: In order to determinate the quality of the castor oil containing emulsions with different steroids, the following compositions were prepared:
# The steroids were weighed in a 50 ml glass beaker. The castor oil (CO) or a mixture of castor oil and soybeans oil (CO+SBO) in a proportion of 70 : 30 was added to the beaker which was heated and the steroids were dissolved. The phospholipids were added to the oil phase and the agitation continued for another five minutes. This mixture was added to a heated aqueous phase containing water and glycerol and agitated for five minutes. The mixture was thereafter homogenized to an emulsion in a high pressure lab scale homogeniser at the technically highest possible pressure. The resultant emulsions were dispersed and sealed 20 ml glass vials which were heat sterilized. The emulsions were analysed with respect to the appearance, the shaking stability, pH and volume distribution. The span was analysed with a Malvern Mastersizer. The appearance of the droplets larger than 1µm and the average area on a relevant picture and the presence of precipitate were investigated with a microscope. The storage stability at 5 and 40°C was also studied.
# [3] = vehicle CO+SBO (castor oil and soybean oil 70 : 30)
structure (smiles),measurement,setting,value
"CC(=O)[C@H]1CC[C@H]2[C@@H]3CC[C@@H]4C[C@H](O)CC[C@]4(C)[C@H]3CC[C@]12C [eltanolone, 5β-pregnan-3α-ol-20-one]",solubility of eltanolone,[1],about 5 times higher
"CC(=O)[C@H]1CC[C@H]2[C@@H]3CC[C@H]4C[C@H](O)CC[C@]4(C)[C@H]3CC[C@]12C [Allo pregnanolone, 5α-pregnan-3β-ol-20-one]",D(4:3),[2]; vehicle CO (castor oil),0.69 µm
same,pH,[2]; vehicle CO (castor oil),8.8
same,Span,[2]; vehicle CO (castor oil),1.70
same,D(4:3),[2]; vehicle CO+SBO (70 : 30),0.53 µm
same,Span,[2]; vehicle CO+SBO (70 : 30),1.58
same,pH,[2]; [3],9.0
same,Storage 5 and 40°C,[2]; vehicle CO (castor oil),>3 months
same,Storage 5 and 40°C,[2]; vehicle CO+SBO (70 : 30),>3 months
"CC(=O)[C@H]1CC[C@H]2[C@@H]3CC[C@@H]4C[C@@H](O)CC[C@]4(C)[C@H]3CC[C@]12C [Epipreganolone, 5β-pregnan-3β-ol-20-one]",D(4:3),[2]; vehicle CO (castor oil),0.75 µm
same,pH,[2]; vehicle CO (castor oil),8.8
same,Span,[2]; vehicle CO (castor oil),1.81
same,D(4:3),[2]; vehicle CO+SBO (70 : 30),0.75 µm
same,Span,[2]; vehicle CO+SBO (70 : 30),1.71
same,pH,[2]; [3],9.0
same,Storage 5 and 40°C,[2]; vehicle CO (castor oil),>4 months
same,Storage 5 and 40°C,[2]; vehicle CO+SBO (70 : 30),>4 months
"C[C@]12CC[C@@H](O)C[C@H]1CC[C@@H]1[C@@H]2CC[C@]2(C)[C@@H](C(=O)CO)CC[C@@H]12 [Tetrahydrodeoxycorticosterone, 5β-pregnan-3α,21-diol-20-one]",D(4:3),[2]; vehicle CO (castor oil),0.86 µm
same,pH,[2]; vehicle CO (castor oil),9.0
same,Span,[2]; vehicle CO (castor oil),1.80
same,D(4:3),[2]; vehicle CO+SBO (70 : 30),0.58 µm
same,Span,[2]; vehicle CO+SBO (70 : 30),1.52
same,pH,[2]; [3],9.1
same,Storage 5 and 40°C,[2]; vehicle CO (castor oil),>1 month months
same,Storage 5 and 40°C,[2]; vehicle CO+SBO (70 : 30),>1 month months
"C[C@]12CC[C@@H](O)C[C@@H]1CC[C@@H]1[C@@H]2CC[C@]2(C)C(=O)CC[C@@H]12 [Androsterone, 5α-androstan-3α-ol-17-one]",D(4:3),[2]; vehicle CO (castor oil),0.83 µm
same,pH,[2]; vehicle CO (castor oil),8.9
same,Span,[2]; vehicle CO (castor oil),1.79
same,D(4:3),[2]; vehicle CO+SBO (70 : 30),0.51 µm
same,Span,[2]; vehicle CO+SBO (70 : 30),1.50
same,pH,[2]; [3],9.2
same,Storage 5 and 40°C,[2]; vehicle CO (castor oil),>1 month months
same,Storage 5 and 40°C,[2]; vehicle CO+SBO (70 : 30),>1 month months
"C[C@]12C=CC(=O)C=C1CC[C@@H]1[C@@H]2[C@@H](O)C[C@@]2(C)[C@H]1CC[C@]2(O)C(=O)CO [Prednisolone, 11β-11, 17, 21-trihydroxypregna-1,4-diene-3,20-dione, reference compound]",D(4:3),[2]; vehicle CO (castor oil),0.81 µm
same,pH,[2]; vehicle CO (castor oil),8.9
same,Span,[2]; vehicle CO (castor oil),1.28
same,D(4:3),[2]; vehicle CO+SBO (70 : 30),0.70 µm
same,Span,[2]; vehicle CO+SBO (70 : 30),1.26
same,pH,[2]; [3],8.9
same,Storage 5 and 40°C,[2]; vehicle CO (castor oil),>2 months
same,Storage 5 and 40°C,[2]; vehicle CO+SBO (70 : 30),>2 months
"CC(=O)[C@H]1CC[C@H]2[C@@H]3CC=C4C[C@@H](OS(=O)(=O)O)CC[C@]4(C)[C@H]3CC[C@]12C [Pregnenolone sulphate, 5-pregnen-3β-ol-20-one-sulphate]",D(4:3),[2]; vehicle CO (castor oil),0.97 µm
same,pH,[2]; vehicle CO (castor oil),8.8
same,Span,[2]; vehicle CO (castor oil),1.76
same,D(4:3),[2]; vehicle CO+SBO (70 : 30),0.50 µm
same,Span,[2]; vehicle CO+SBO (70 : 30),1.56
same,pH,[2]; [3],8.8
same,Storage 5 and 40°C,[2]; vehicle CO (castor oil),>1 month months
same,Storage 5 and 40°C,[2]; vehicle CO+SBO (70 : 30),>1 month months
"C[C@]12CCC(=O)C=C1CC[C@@H]1[C@@H]2[C@@H](O)C[C@@]2(C)[C@H]1CC[C@]2(O)C(=O)CO [Hydrocortisone, 11β,17α,21-trihydroxypregna-4-ene-3,20-dione, reference compound]",D(4:3),[2]; vehicle CO (castor oil),0.76 µm
same,pH,[2]; vehicle CO (castor oil),8.7
same,Span,[2]; vehicle CO (castor oil),1.43
same,D(4:3),[2]; vehicle CO+SBO (70 : 30),0.56 µm
same,Span,[2]; vehicle CO+SBO (70 : 30),1.51
same,pH,[2]; [3],8.8
